Converted amounts (≈) assume the structure as drawn. Where two headings read alike, the source gives them in different places.
How the values were obtained:
[1] = system: Neisseria gonorrhoeae strains
[2] = thigh infection study, treated groups, relative to day of infection

## C[C@H]1COc2c(N3CC[C@@H](Nc4ncccn4)C3)c(F)cc3c(=O)c(C(=O)O)cn1c23 [KSN-82-L22]
[1]; ATCC49226, strain ATCC 49226, PEN-I TET-I
  MIC: < 0.0312 µg/mL
[1]; ATCC700825, strain ATCC 700825
  MIC: 50 µg/mL (≈ 118 µM)
[1]; BAA1833, strain BAA-1833, PEN-I TET-I
  MIC: 50 µg/mL (≈ 118 µM)
[1]; BAA1838, strain BAA-1838
  MIC: 50 µg/mL (≈ 118 µM)
[1]; CCUG57595, strain CCUG 57595
  MIC: 50 µg/mL (≈ 118 µM)
[1]; CCUG57596
  MIC: 0.125 µg/mL (≈ 0.294 µM)
[1]; CCUG57597, strain CCUG 57597, FEP-NS FOX-I CAZ-NS CIP-R OFX-R PEN-R TET-R
  MIC: 2 µg/mL (≈ 4.7 µM)
[1]; CCUG57598, strain CCUG 57598, FOX-R CAZ-NS CRO-NS CIP-R OFX-R PEN-R TET-R
  MIC: 2 µg/mL (≈ 4.7 µM)
[1]; CCUG57599, strain CCUG 57599, CIP-R OFX-R PEN-R TET-R
  MIC: 0 to 5 µg/mL
[1]; CCUG57600, strain CCUG 57600, CIP-R OFX-R PEN-R TET-R
  MIC: 1 µg/mL (≈ 2.35 µM)
[1]; CCUG57601, strain CCUG 57601, PEN-R TET-R
  MIC: < 0.0312 µg/mL
[1]; CCUG57602, strain CCUG 57602, PEN-I TET-I
  MIC: 0.0625 µg/mL (≈ 0.147 µM)
[1]; NCTC13817, strain NCTC 13817, PEN-R TET-I
  MIC: 0 to 5 µg/mL
[1]; NCTC13818, strain NCTC 13818, CIP-R OFX-R PEN-R TET-R
  MIC: 2 µg/mL (≈ 4.7 µM)
[1]; NCTC13819, strain NCTC 13819, FEP-NS CAZ-NS CIP-R OFX-R PEN-R TET-I
  MIC: 2 µg/mL (≈ 4.7 µM)
[1]; NCTC13820, strain NCTC 13820, FEP-NS CFM-NS CAZ-NS CRO-NS CIP-R OFX-R PEN-R TET-R
  MIC: 2 µg/mL (≈ 4.7 µM)
[1]; NCTC13821, strain NCTC 13821, FEP-NS CFM-NS CAZ-NS CRO-NS CIP-R PEN-I TET-I
  MIC: 2 µg/mL (≈ 4.7 µM)
[1]; NCTC13822, strain NCTC 13822, FEP-NS CFM-NS CAZ-NS CIP-R OFX-R PEN-R TET-I
  MIC: 2 µg/mL (≈ 4.7 µM)
[1]; strain 2007NG046, PEN-R CFM-R CPD-R CIP-R
  MIC: 4 µg/mL (≈ 9.4 µM)
[1]; strain 2008NG057, PEN-R CFM-R CPD-R CIP-R
  MIC: 2 µg/mL (≈ 4.7 µM)
[1]; strain 2008NG097, PEN-R CFM-R CPD-R CIP-R
  MIC: 2 µg/mL (≈ 4.7 µM)
[1]; strain 2009NG514, PEN-R CPD-R CIP-R
  MIC: 2 µg/mL (≈ 4.7 µM)
[1]; strain 2010NG122, PEN-R CFM-R CIP-R
  MIC: 2 µg/mL (≈ 4.7 µM)
[1]; strain FDA-CDC AR-BANK#0165, CIP-R PEN-I TET-R
  MIC: 2 µg/mL (≈ 4.7 µM)
[1]; strain FDA-CDC AR-BANK#0166, CIP-R PEN-I TET-R
  MIC: 2 µg/mL (≈ 4.7 µM)
[1]; strain FDA-CDC AR-BANK#0167, CIP-S PEN-S TET-I
  MIC: < 0.0312 µg/mL
[1]; strain FDA-CDC AR-BANK#0168, CIP-R PEN-I TET-R
  MIC: 1 µg/mL (≈ 2.35 µM)
[1]; strain FDA-CDC AR-BANK#0169, CIP-R PEN-I TET-R
  MIC: 2 µg/mL (≈ 4.7 µM)
[1]; strain FDA-CDC AR-BANK#0170, CIP-R PEN-I TET-R
  MIC: 2 µg/mL (≈ 4.7 µM)
[1]; strain FDA-CDC AR-BANK#0171, CIP-R PEN-I TET-R
  MIC: 1 µg/mL (≈ 2.35 µM)
[1]; strain FDA-CDC AR-BANK#0172, CIP-R PEN-R TET-R
  MIC: 1 µg/mL (≈ 2.35 µM)
[1]; strain FDA-CDC AR-BANK#0173, CIP-R PEN-R TET-R
  MIC: 2 µg/mL (≈ 4.7 µM)
[1]; strain FDA-CDC AR-BANK#0174, CIP-R PEN-R TET-R
  MIC: 2 µg/mL (≈ 4.7 µM)
[1]; strain FDA-CDC AR-BANK#0175, CIP-S PEN-I TET-I
  MIC: < 0.0312 µg/mL
[1]; strain FDA-CDC AR-BANK#0176, CIP-R PEN-R TET-R
  MIC: 2 µg/mL (≈ 4.7 µM)
[1]; strain FDA-CDC AR-BANK#0177, CIP-S PEN-I TET-R
  MIC: < 0.0312 µg/mL
[1]; strain FDA-CDC AR-BANK#0178, CIP-R PEN-R TET-R
  MIC: 2 µg/mL (≈ 4.7 µM)
[1]; strain FDA-CDC AR-BANK#0179, CIP-S PEN-S TET-I
  MIC: < 0.0312 µg/mL
[1]; strain FDA-CDC AR-BANK#0180, CIP-R PEN-I TET-R
  MIC: 2 µg/mL (≈ 4.7 µM)
[1]; strain FDA-CDC AR-BANK#0181, CIP-S PEN-I TET-R
  MIC: < 0.0312 µg/mL
[1]; strain FDA-CDC AR-BANK#0182, CIP-R PEN-I TET-R
  MIC: 2 µg/mL (≈ 4.7 µM)
[1]; strain FDA-CDC AR-BANK#0183, CIP-R PEN-R TET-R
  MIC: 2 µg/mL (≈ 4.7 µM)
[1]; strain FDA-CDC AR-BANK#0184, CIP-R PEN-R TET-R
  MIC: 2 µg/mL (≈ 4.7 µM)
[1]; strain FDA-CDC AR-BANK#0185, CIP-R PEN-I TET-R
  MIC: 2 µg/mL (≈ 4.7 µM)
[1]; strain FDA-CDC AR-BANK#0186, CIP-R PEN-R TET-R
  MIC: 1 µg/mL (≈ 2.35 µM)
[1]; strain FDA-CDC AR-BANK#0187, CIP-R PEN-I TET-R
  MIC: 2 µg/mL (≈ 4.7 µM)
[1]; strain FDA-CDC AR-BANK#0188, CIP-R PEN-I TET-R
  MIC: 1 µg/mL (≈ 2.35 µM)
[1]; strain FDA-CDC AR-BANK#0189, CIP-R PEN-R TET-R
  MIC: 2 µg/mL (≈ 4.7 µM)
[1]; strain FDA-CDC AR-BANK#0190, CIP-R PEN-R TET-R
  MIC: 2 µg/mL (≈ 4.7 µM)
[1]; strain FDA-CDC AR-BANK#0191, CIP-R PEN-R TET-R
  MIC: 2 µg/mL (≈ 4.7 µM)
[1]; strain FDA-CDC AR-BANK#0192, CIP-R PEN-R TET-R
  MIC: 2 µg/mL (≈ 4.7 µM)
[1]; strain FDA-CDC AR-BANK#0193, CIP-S PEN-R TET-R
  MIC: < 0.0312 µg/mL
[1]; strain FDA-CDC AR-BANK#0194, CRO-NS CIP-S PEN-I TET-R
  MIC: < 0.0312 µg/mL
[1]; strain FDA-CDC AR-BANK#0195, CIP-R PEN-I TET-R
  MIC: 2 µg/mL (≈ 4.7 µM)
[1]; strain FDA-CDC AR-BANK#0196, CIP-R PEN-R TET-R
  MIC: 2 µg/mL (≈ 4.7 µM)
[1]; strain FDA-CDC AR-BANK#0197, CIP-R PEN-I TET-I
  MIC: 2 µg/mL (≈ 4.7 µM)
[1]; strain FDA-CDC AR-BANK#0198, CIP-R PEN-R TET-R
  MIC: 2 µg/mL (≈ 4.7 µM)
[1]; strain FDA-CDC AR-BANK#0199, CIP-S PEN-R TET-R
  MIC: < 0.0312 µg/mL
[1]; strain FDA-CDC AR-BANK#0200, CIP-R PEN-R TET-R
  MIC: 2 µg/mL (≈ 4.7 µM)
[1]; strain FDA-CDC AR-BANK#0201, CIP-R PEN-R TET-R
  MIC: 2 µg/mL (≈ 4.7 µM)
[1]; strain FDA-CDC AR-BANK#0202, CIP-S PEN-S TET-I
  MIC: < 0.0312 µg/mL
[1]; strain FDA-CDC AR-BANK#0203, CIP-R PEN-R TET-R
  MIC: 2 µg/mL (≈ 4.7 µM)
[1]; strain FDA-CDC AR-BANK#0204, CIP-R PEN-I TET-R
  MIC: 2 µg/mL (≈ 4.7 µM)
[1]; strain FDA-CDC AR-BANK#0205, CIP-R PEN-R TET-R
  MIC: 2 µg/mL (≈ 4.7 µM)
[1]; strain FDA-CDC AR-BANK#0206, CIP-R PEN-R TET-R
  MIC: 2 µg/mL (≈ 4.7 µM)
[1]; strain FDA-CDC AR-BANK#0207, CIP-R PEN-R TET-R
  MIC: 2 µg/mL (≈ 4.7 µM)
[1]; strain FDA-CDC AR-BANK#0208, CIP-R PEN-I TET-R
  MIC: 2 µg/mL (≈ 4.7 µM)
[1]; strain FDA-CDC AR-BANK#0209, CIP-R PEN-I TET-R
  MIC: 2 µg/mL (≈ 4.7 µM)
[1]; strain FDA-CDC AR-BANK#0210, CIP-R PEN-I TET-I
  MIC: 2 µg/mL (≈ 4.7 µM)
[1]; strain FDA-CDC AR-BANK#0211, CIP-R PEN-R TET-R
  MIC: 2 µg/mL (≈ 4.7 µM)
[1]; strain FDA-CDC AR-BANK#0212, CIP-R PEN-I TET-R
  MIC: 2 µg/mL (≈ 4.7 µM)
[1]; strain FDA-CDC AR-BANK#0213, CIP-R PEN-I TET-I
  MIC: 1 µg/mL (≈ 2.35 µM)
[1]; strain FDA-CDC AR-BANK#0214, CIP-R PEN-R TET-R
  MIC: 2 µg/mL (≈ 4.7 µM)
[1]; strain TCDC-NG08107, PEN-R CFM-R CPD-R CIP-R
  MIC: 2 µg/mL (≈ 4.7 µM)
[2]
  body weights following infection: slightly increased

Source: US11746116B2, “Antibiotic resistance breakers” (KING'S COLLEGE LONDON, priority 2017, dated 2023)
